# Where two headings read alike, the source gives them in different places.
# What was measured:
# human FGFR4 = target: T1, human FGFR4 (Homo sapiens, UniProt P22455); assay: FGFR4 enzymatic assay (HTRF KinEASE-TK); format: biochemical; settings: wild-type human FGFR4 cytoplasmic domain (460-802), GST-tag; 60 min preincubation at 25° C.; ATP 200 μM; read-out: Potency (IC50), FGFR4 enzymatic assay
# T1 construct: human FGFR4 cytoplasmic domain (460-802); GST (N); purchased Carna Biosciences 08-136
# Method: The ability of compounds to inhibit human FGFR4 tyrosine kinase activities was determined using a commercially available HTRF® KinEASE™-TK kit (CISBIO, Cat #62TK0PEC) according to the manufacturer's protocol. Wild-type human FGFR4 cytoplasmic domain (460-802) with N-terminal GST-tag was purchased from Carna Biosciences (Carna, Cat #08-136) and used in the kinase enzymatic assay. This assay, run in a 384-well plate format, is a generic method for measuring tyrosine kinase activities using one substrate and a universal detection system. It involves two steps: (1) Enzymatic step: the biotin labeled TK Substrate is incubated with the kinase and then ATP is added to start the enzymatic reaction; during this step, FGFR4 will phosphorylate the TK Substrate-biotin. (2) Detection step: The TK-Antibody labeled with Eu^3+-Cryptate can recognize the phosphorylated TK Substrate-biotin. When the streptavidin-XL665 conjugate binds the biotin, a FRET signal will be detected. Briefly, human FGFR4 (0.25 μg/ml) in the enzymatic buffer solutions (250 mM HEPES, pH7.0, 0.1% NaN3, 0.05% BSA, 0.5 mM Orthovanadate) were mixed with various concentrations of the test compound (dissolved in 100% DMSO). These solutions were incubated for 60 min at 25° C., and subsequently a mixture of substrate peptide and ATP was added with the final peptide and ATP concentrations at 0.3 μM and 200 μM respectively. The final reaction mixture of enzyme-substrate-ATP-compound was incubated for 40 min at 37° C. Meanwhile the detection mixture containing the TK-antibody and Streptavidin-XL665 diluted in the detection buffer (50 mM HEPES, pH7.0, with additives) was prepared, and added to the reaction mixture at final concentrations of 25 nM and 18.5 nM respectively. After incubation for 60 min at 25° C., the FRET signal of the final solution was measured at 665 nm and 612 nm emissions on a TECAN Spark 10M instrument (TECAN). The percent (%) inhibition at each concentration of a compound was calculated relative to the FRET signal in the Max and Min control wells contained within each assay plate. The Max control wells contained enzyme and substrate as 0% inhibition, and the Min control wells only contained substrate without enzyme as 100% inhibition. The concentrations and percent inhibition values for a test compound are plotted and the concentration of the compound required to achieve 50% inhibition (IC50) was determined with a four-parameter logistic dose response equation. Dose-response curves were generated using Prism (GraphPad Software, La Jolla, CA, US) to calculate IC50 values for each compound tested.
# Hep3B cells = assay: Cell-based FGFR4 proliferation assay (CellTiter-Glo); settings: incubated with test compound for 3 days, CellTiter-Glo luminescence, read-out: Potency (IC50), Hep3B cell proliferation
# Method: Hepatocellular carcinoma cell line Hep3B (ATCC, Cat #HB-8064) were cultured at 37° C., 5% CO2 in ATCC-formulated Eagle's Minimum Essential Medium supplemented with 10% fetal bovine serum; 1% Penicillin-Streptomycin.
# (§1) Cell line: Hepatocellular carcinoma cell line Hep3B (ATCC, Cat #HB-8064).
# In this assay, Hep3B cells are seeded in 384-well microplates, and after exposure to experimental compounds for […], CellTiter-Glo® Luminescent Cell Viability Assay kit (Promega, Cat #G7572) are used to determine the number of viable cells in the culture based on quantitation of the ATP present, which signals the presence of metabolically active cells. Luminescent signal is proportional to the amount of ATP present. The amount of ATP is directly proportional to the number of cells present in the culture, allowing drug-induced effects on cell proliferation to be measured.
# Hep3B cells were plated at a density of 4×10^4/ml cells in a 384-well black/clear microplate with 20 μL per well of MEM Medium (Gibco Cat. #11095-080) supplemented with 10% fetal bovine serum; 1% Penicillin-Streptomycin, and cultured overnight at 37° C., 5% CO2. Various concentrations of the test compound (dissolved in 100% DMSO) were added to the wells of the cell plate. The cells were incubated with the test compound for 3 days at 37° C., 5% CO2. 5 μL of CellTiter-Glo® Reagent was added to each well of the cell plate. The cell plate was incubated for 5 min at 25° C. on a plate shaker (IKA MTS 2/4) at 300 rpm. Luminescence signals were read on a TECAN Spark 10M instrument (TECAN). […] The concentrations and percent inhibition values for a test compound were plotted and the concentration of the compound required to achieve 50% inhibition (IC50) is determined with a four-parameter logistic dose response equation. Dose-response curves were generated using Prism (GraphPad Software, La Jolla, CA, US) to calculate IC50 values for each compound tested.
# [1] = test system: MAPK phosphorylation in Hep3B cells stimulated with FGF19; assay: FGFR4 pMAPK AlphaLISA SureFire Ultra assay; format: cell-based; settings: serum-starved, compound 1 hour, FGF19 100 ng/ml for 4 hours, read-out: Potency (IC50), FGFR4 pMAPK AlphaLISA
# Excerpt: as §1
# In normal liver, circulating FGF19 drives liver cell proliferation and regulates bile acid production. However aberrant expression of FGF19 in the liver drives HCC tumorigenesis, upregulates MAPK phosphorylation in FGF19-amplified malignant liver cells. AlphaScreen SureFire technology allows the detection of phosphorylated proteins in cellular lysates in a highly sensitive, quantitative assay. In these assays, sandwich antibody complexes, which are only formed in the presence of analyte, are captured by AlphaScreen Donor and Acceptor beads, bringing them into close proximity. The excitation of the Donor bead provokes the release of singlet oxygen molecules that triggers a cascade of energy transfer in the Acceptor beads, resulting in the emission of light at 520-620 nm.
# Hep3B cells were plated at a density of 1×10^4/ml cells in a 96-well plate (Corning #3599), with 100 uL per well of MEM Medium (Gibco Cat #11095-080) supplemented with 10% fetal bovine serum; 1% Penicillin-Streptomycin, and cultured overnight at 37° C., 5% CO2. Starve Hep3B cells in serum-free medium (SFM) supplemented with 0.2% BSA and incubate the cells again overnight at 37° C., 5% CO2. Various concentrations of the test compound (prepared in 2x SFM) were added to the wells of the cell plate and then incubated for 1 hour at 37° C., 5% CO2. 50 μL of FGF19 in SFM was added to each well of the cell plate with a final FGF19 concentration of 100 ng/ml, and cells treated with FGF19 were stimulated for 4 hours at 37° C., 5% CO2. 5 μL of freshly prepared Donor Mix and Acceptor Mix were sequentially added to the cell plate, each followed with 1 hour of incubation at 25° C., 5% CO2. Read the cell plate on an Alpha Technology-compatible plate reader at 570 nm AlphaScreen, using standard AlphaLISA settings. The percent (%) inhibition=((ZPE−Alpha-Signal)/(ZPE−HPE))*100% where the meanings of HPE and ZPE are as provided below.
# HPE: Hundred Percent Effect, negative control well without FGF19 nor compound. Final concentration of DMSO is 0.1%.
# ZPE: Zero Percent Effect, positive control well without compound. Final concentration of FGF19 is 100 ng/mL, DMSO is 0.1%.
# The concentrations and percent inhibition values for a test compound were plotted and the concentration of the compound required to achieve 50% inhibition (IC50) was determined with a four-parameter logistic dose response equation. Dose-response curves were generated using Prism (GraphPad Software, La Jolla, CA, US) to calculate IC50 values for each compound tested.
# T1 sequence (P22455 460-802): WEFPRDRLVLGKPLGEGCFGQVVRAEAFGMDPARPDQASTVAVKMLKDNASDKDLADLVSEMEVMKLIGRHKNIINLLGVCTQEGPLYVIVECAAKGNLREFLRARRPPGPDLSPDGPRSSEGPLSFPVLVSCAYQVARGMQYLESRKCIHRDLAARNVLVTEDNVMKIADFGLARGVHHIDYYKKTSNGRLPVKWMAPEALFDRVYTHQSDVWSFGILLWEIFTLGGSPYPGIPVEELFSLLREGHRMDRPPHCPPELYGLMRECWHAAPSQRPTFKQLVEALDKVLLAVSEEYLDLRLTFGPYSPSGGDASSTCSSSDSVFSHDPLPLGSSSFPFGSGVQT
Compound,IC50 (human FGFR4) [nM],"IC50 (Hep3B cells; Homo sapiens, Hep3B, 72 h) [nM]","IC50 ([1]; Homo sapiens, Hep3B) [nM]",IC50 (Hep3B cells) [nM],IC50 [1] [nM]
"[2H]C([2H])([2H])Oc1cc(OC([2H])([2H])[2H])c(F)c(C2CCc3c(-c4c(NC(=O)C=C)cnn4C)n[nH]c3C2)c1 (single isomer, unassigned) [Compound S8-P3, N-(5-(6-(2-fluoro-3,5-bis(methoxy-d3)phenyl)-4,5,6,7-tetrahydro-1H-indazol-3-yl)-1-methyl-1H-pyrazol-4-yl) acrylamide]",10 to 100,> 100,10 to 100,–,–
"[2H]C([2H])([2H])Oc1cc(OC([2H])([2H])[2H])c(F)c(C2CCc3c(-c4c(NC(=O)C=C)cnn4C)n[nH]c3C2)c1 (single isomer, unassigned) [Compound S8-P4, N-(5-(6-(2-fluoro-3,5-bis(methoxy-d3)phenyl)-4,5,6,7-tetrahydro-1H-indazol-3-yl)-1-methyl-1H-pyrazol-4-yl) acrylamide]",10 to 100,–,–,> 100,10 to 100
"C=CC(=O)Nc1cn[nH]c1-c1n[nH]c2c1CCCC(c1cc(OC)cc(OC)c1F)C2 (single isomer, unassigned) [Compound S11-P3, N-(5-(7-(2-fluoro-3,5-dimethoxyphenyl)-1,4,5,6,7,8-hexahydrocyclohepta[c]pyrazol-3-yl)-1H-pyrazol-4-yl)acrylamide]",< 10,10 to 100,< 10,–,–
"C=CC(=O)Nc1cn[nH]c1-c1n[nH]c2c1CCCC(c1cc(OC)cc(OC)c1F)C2 (single isomer, unassigned) [Compound S11-P4, N-(5-(7-(2-fluoro-3,5-dimethoxyphenyl)-1,4,5,6,7,8-hexahydrocyclohepta[c]pyrazol-3-yl)-1H-pyrazol-4-yl)acrylamide]",< 10,–,–,< 10,< 10
"C=CC(=O)Nc1cn(C)nc1-c1n[nH]c2c1CCC[C@H](c1c(F)c(OC)cc(OC)c1F)C2 (single isomer, unassigned) [Compound S12-P1]",< 10,10 to 100,< 10,–,–

# Now from value to compound:
IC50 (human FGFR4) [nM],"IC50 (Hep3B cells; Homo sapiens, Hep3B, 72 h) [nM]","IC50 ([1]; Homo sapiens, Hep3B) [nM]",IC50 (Hep3B cells) [nM],IC50 [1] [nM],Compound
< 10,10 to 100,< 10,–,–,"C=CC(=O)Nc1cnn(C)c1-c1n[nH]c2c1CCC(c1c(F)c(OC)cc(OC)c1F)C2 (single isomer, unassigned) [Compound S1-P1, N-(5-(6-(2,6-difluoro-3,5-dimethoxyphenyl)-4,5,6,7-tetrahydro-1H-indazol-3-yl)-1-methyl-1H-pyrazol-4-yl)acrylamide]"
< 10,–,–,10 to 100,< 10,"C=CC(=O)Nc1cnn(C)c1-c1n[nH]c2c1CCC(c1c(F)c(OC)cc(OC)c1F)C2 (single isomer, unassigned) [Compound S1-P2, N-(5-(6-(2,6-difluoro-3,5-dimethoxyphenyl)-4,5,6,7-tetrahydro-1H-indazol-3-yl)-1-methyl-1H-pyrazol-4-yl)acrylamide]"
10 to 100,–,> 100,> 100,–,"C=CC(=O)Nc1ncn(C)c1-c1n[nH]c2c1CCC(c1c(F)c(OC)cc(OC)c1F)C2 (single isomer, unassigned) [Compound S3-P2, N-(5-(6-(2,6-Difluoro-3,5-dimethoxyphenyl)-4,5,6,7-tetrahydro-1H-indazol-3-yl)-1-methyl-1H-imidazol-4-yl) Acrylamide]"
< 10,< 10,< 10,–,–,"C=CC(=O)Nc1cnn(C)c1-c1n[nH]c2c1CCC[C@@H](c1c(F)c(OC)cc(OC)c1F)C2 (single isomer, unassigned) [Compound S4-P1]"
10 to 100,–,10 to 100,> 100,–,"C=CC(=O)Nc1cnn(C)c1-c1n[nH]c2c1COC(c1c(F)c(OC)cc(OC)c1F)C2 (single isomer, unassigned) [Compound S6-P2, N-(5-(6-(2,6-difluoro-3,5-dimethoxyphenyl)-1,4,6,7-tetrahydropyrano[4,3-c]pyrazol-3-yl)-1-methyl-1H-pyrazol-4-yl) acrylamide]"
< 10,10 to 100,< 10,–,–,"[2H]C([2H])([2H])Oc1cc(OC([2H])([2H])[2H])c(F)c(C2CCc3c(-c4c(NC(=O)C=C)cnn4C)n[nH]c3C2)c1F (single isomer, unassigned) [Compound S8-P1, N-(5-(6-(2,6-difluoro-3,5-bis(methoxy-d3)phenyl)-4,5,6,7-tetrahydro-1H-indazol-3-yl)-1-methyl-1H-pyrazol-4-yl) acrylamide]"
< 10,–,–,10 to 100,< 10,"[2H]C([2H])([2H])Oc1cc(OC([2H])([2H])[2H])c(F)c(C2CCc3c(-c4c(NC(=O)C=C)cnn4C)n[nH]c3C2)c1F (single isomer, unassigned) [Compound S8-P2, N-(5-(6-(2,6-difluoro-3,5-bis(methoxy-d3)phenyl)-4,5,6,7-tetrahydro-1H-indazol-3-yl)-1-methyl-1H-pyrazol-4-yl) acrylamide]"

# Reference: patent US11976058B2, “Aromatic derivatives, preparation methods, and medical uses thereof” (Bioardis LLC, priority 2019, dated 2024)
